From publication PMC9326219, “Design and Synthesis of 1-O- and 6′-C-Modified Heparan Sulfate Trisaccharides as Human Endo-6-O-Sulfatase 1 Inhibitors” (Frontiers in Chemistry, 2022)

Columns and labels:
[1] = target: T1, human endo-6-O-sulfatase 1 (Sulf-1) (Homo sapiens, UniProt Q8IWU6); test: fluorescent 4-MUS hydrolysis assay with purified human Sulf-1; assay type: biochemical
T1 construct: gene SULF1

[2] = target: T1, human endo-6-O-sulfatase 1 (Sulf-1); test: fluorescent 4-MUS hydrolysis assay with purified human Sulf-1; kinetic fit to competitive model (IC50 […]); assay type: biochemical

Compound | IC50 [1] [nM] | Ki [2] [nM]
CO[C@@H]1O[C@@H](C(=O)O)[C@@H](O[C@H]2O[C@H](CNS(=O)(=O)O)[C@@H](O[C@@H]3O[C@@H](C(=O)O)[C@@H](O)[C@H](O)[C@H]3OS(=O)(=O)O)[C@H](O)[C@H]2NS(=O)(=O)O)[C@H](O)[C@H]1OS(=O)(=O)O [compound 6, IdoA2OS-GlcNS6NS-IdoA2OS-OMe] | 4600 | –
CO[C@@H]1O[C@@H](C(=O)O)[C@@H](O[C@H]2O[C@H](COS(N)(=O)=O)[C@@H](O[C@@H]3O[C@@H](C(=O)O)[C@@H](O)[C@H](O)[C@H]3OS(=O)(=O)O)[C@H](O)[C@H]2NS(=O)(=O)O)[C@H](O)[C@H]1OS(=O)(=O)O [compound 5, IdoA2OS-GlcNS6OSO2NH2-IdoA2OS-OMe] | – | 140
